Data taken from patent publication US10736908B2, “Antiviral aryl-amide phosphodiamide compounds” (Merck Sharp & Dohme Corp., priority 2016, dated 2020).
Where two headings read alike, the source gives them in different places.

How the values were obtained:
HIV-1 (H9/IIIB strain) = assay: Multiple round HIV-1 infection assay (Viking assay) in MT4-GFP cells; format: cell-based; conditions: HIV-1 replication in MT4-GFP cells
Protocol: Assessing Antiviral Potency in a Multiple Round HIV-1 Infection Assay (Viking Assay)
The antiviral activity of the tenofovir prodrugs of the Examples herein was assessed in an assay that measures the rate of replication of HIV in cell culture, termed the Viking assay (VIral KINetics in Green cells) and performed as follows. HIV-1 replication was monitored using MT4-gag-GFP clone D3 (hereafter designated MT4-GFP), which are MT-4 cells modified to harbor a GFP reporter gene, the expression of which is dependent on the HIV-1 expressed proteins tat and rev. Productive infection of an MT4-GFP cell with HIV-1 results in GFP expression approximately 24 h post-infection. MT4-GFP cells were maintained at 37° C./5% CO2/90% relative humidity in RPMI 1640 supplemented with 10% fetal bovine serum, 100 U/ml penicillin/streptomycin, and 400 μg/ml G418 to maintain the reporter gene. For infections, MT4-GFP cells were placed in the same medium lacking G418 and infected overnight with HIV-1 (H9/IIIB strain) virus at an approximate multiplicity of infection of 0.01 in the same incubation conditions. […] Compound plates were prepared by dispensing compounds dissolved in DMSO into wells of 384 well poly-D-lysine-coated plates (0.2 μl/well) using an ECHO acoustic dispenser. Each compound was tested in a 10-point serial 3-fold dilution (typical final concentrations: 8.4 μM-0.42 nM). Controls included no inhibitor (DMSO only) and a combination of three antiviral agents (efavirenz, indinavir, an in-house integrase strand transfer inhibitor at final concentrations of 4 μM each). Cells were added (50 μL/well) to compound plates and the infected cells were maintained at 37° C./5% CO2/90% relative humidity.
Infected cells were quantified at two time points, ˜48 h and ˜72 h post-infection, by counting the number of green cells in each well using an Acumen eX3 scanner. The increase in the number of green cells over ˜24 h period gives the reproductive ratio, R0, which is typically 5-15 and has been shown experimentally to be in logarithmic phase (data not shown). Inhibition of R0 is calculated for each well, and IC50s determined by non-linear 4-parameter curve fitting.

[1] = Prodrug stability assay in bio-relevant media (FaSSIF with Pancreatin); format: in vitro ADME; conditions: HPLC peak area of prodrug at 5 h divided by that at 0 h; 0.5 mg/mL Pancreatin in FaSSIF, 37° C.
Protocol: Prodrug Stability Assay in Bio-Relevant Media
The following assay was employed to evaluate the stability of the prodrugs in simulated gastrointestinal tract conditions. Preparation of fasted state simulated intestinal fluid (FaSSIF) using Phares SIF Powder was carried out according to protocols from Phare Drug Delivery AG (Baselland, Switzerland). For sample preparation, 10 μL stock solutions (10 mM) of prodrug substance in DMSO was added to 990 μL of 0.5 mg/mL Pancreatin solution (Fisher CAS #8049-47˜6) in FaSSIF. Two samples were prepared for each compound. If the sample was a clear solution, it was directly analyzed by HPLC. If the sample was not clear, the sample was diluted with 100% MeCN, maintained at 37° C. and observed 5 h later. If the sample was clear, HPLC analysis was directly performed. If the sample was still not clear, the sample was diluted with 100% ACN and assayed by HPLC. All the samples were vortexed for 3 min and observed before injection. For the diluted samples, the area is multiplied by a dilution factor when the data is analyzed. The analysis was carried out with an Agilent 1100 series HPLC with autosampler. The column was a Poroshell 120 EC-C18, 4.6×50 mm, 2.7 μm. The flow rate was 1.8 mL/min, and the injection volume was 5 or 10 μL. UV detection was in the range 210-400 nm. The mobile phase consisted of solvent A (water plus 10 mM tetrabutylammonium bromide) and solvent B (acetonitrile) with a gradient of: 90% solvent A at 0 min, changing to 95% solvent B over 6 min, maintaining for 1.5 min, then reverting to 90% solvent A over 1.6 min. The HPLC peak area of the prodrug at 5 h was divided by the HPLC peak area of the prodrug at 0 h, to generate the % claimed parent ratio, which is summarized in Table 2 for gastrointestinal (GI) Tract stability.

[2] = Human immunodeficiency virus 1, IIIB, 50% NHS (normal human serum), read-out: Viking, IC50 (50% NHS)
[3] = Human immunodeficiency virus 1, IIIB, head prints 100% NHS (normal human serum), read-out: Viking, IC50 (100% NHS)
[4] = 50% NHS (normal human serum), read-out: Viking, IC50 (50% NHS)
[5] = head prints 100% NHS (normal human serum), read-out: Viking, IC50 (100% NHS)

GI Tract stability [1] [%] | SMILES | IC50 (HIV-1 (H9/IIIB strain); [2]) [nM] | IC50 (HIV-1 (H9/IIIB strain); [3]) [nM] | IC50 (HIV-1 (H9/IIIB strain); [4]) [nM] | IC50 (HIV-1 (H9/IIIB strain); [5]) [nM]
99.9 | CCCCCOC(=O)C(C)(C)NP(=O)(CO[C@H](C)Cn1cnc2c(N)ncnc21)NC(=O)c1ccc(Cl)cc1 (single isomer, unassigned) [Example 3A] |  |  | 33.2 | 5.1
75.98 | CCCCCOC(=O)C(C)(C)NP(=O)(CO[C@H](C)Cn1cnc2c(N)ncnc21)NC(=O)c1ccc(Cl)cc1 (single isomer, unassigned) [Example 3B] |  |  | 10.9 | 2.3
84.76 | CCCOC(=O)C(C)(C)NP(=O)(CO[C@H](C)Cn1cnc2c(N)ncnc21)NC(=O)c1ccc(Cl)cc1 (single isomer, unassigned) [Example 4B] |  |  | 17.6 | 3.6
90.33 | C[C@H](Cn1cnc2c(N)ncnc21)OCP(=O)(NC(=O)c1ccc(Cl)cc1)NC(C)(C)C(=O)OC1CCC1 (single isomer, unassigned) [Example 6B] |  |  | 13.5 | 4.1
99.1 | C[C@H](Cn1cnc2c(N)ncnc21)OCP(=O)(NC(=O)c1ccc(Cl)cc1)NC(C)(C)C(=O)OC1CCOCC1 (single isomer, unassigned) [Example 9B] |  |  | 74.8 | 16.9
99.96 | CC(C)OC(=O)C(C)(C)NP(=O)(CO[C@H](C)Cn1cnc2c(N)ncnc21)NC(=O)c1ccc(F)cc1 (single isomer, unassigned) [Example 10B] |  |  | 89.8 | 25.7
72.61 | CCCCCOC(=O)C(C)(C)NP(=O)(CO[C@H](C)Cn1cnc2c(N)ncnc21)NC(=O)c1ccc(F)cc1 (single isomer, unassigned) [Example 11A] |  | 4.1 | 15 | 
95.44 | CCCCCOC(=O)C(C)(C)NP(=O)(CO[C@H](C)Cn1cnc2c(N)ncnc21)NC(=O)c1cccs1 (single isomer, unassigned) [Example 15A] | 34.1 | 8.4 |  | 
92.38 | CCCCCOC(=O)C(C)(C)NP(=O)(CO[C@H](C)Cn1cnc2c(N)ncnc21)NC(=O)c1ccc(C)cc1 (single isomer, unassigned) [Example 18B] |  |  | 10.5 | 2

SMILES | GI Tract stability [1] [%] | IC50 (HIV-1 (H9/IIIB strain); [2]) [nM] | IC50 (HIV-1 (H9/IIIB strain); [3]) [nM] | IC50 (HIV-1 (H9/IIIB strain); [4]) [nM] | IC50 (HIV-1 (H9/IIIB strain); [5]) [nM]
CC(C)OC(=O)C(C)(C)NP(=O)(CO[C@H](C)Cn1cnc2c(N)ncnc21)NC(=O)c1ccc(Cl)cc1 (single isomer, unassigned) [Example 1B] | 95.48 | 24.4 | 6.9 |  | 
